Experiments:
Mus musculus [1] = assay: Gastroprotective activity in Swiss albino mouse model of HCl/EtOH-induced lesion assessed as gastric lesion index at 10 mg/kg, po dosed 50 mins before HCl/EtOH challenge and measured 1 hr post HCl/EtOH challenge (reference value: 42 +/- 1.9 mm); format: functional, Stomach
Mus musculus [2] = assay: Gastroprotective activity in Swiss albino mouse model of HCl/EtOH-induced lesion assessed as inhibition of gastric lesions at 50 mg/kg, po dosed 50 mins before HCl/EtOH challenge and measured 1 hr post HCl/EtOH challenge; format: functional; conditions: Stomach
AGS = assay: Cytotoxic activity against human AGS cells assessed as reduction in cell viability incubated for 48 hrs by MTT assay; format: cell-based
[3] = Cytotoxic activity against human fibroblasts assessed as reduction in cell viability incubated for 48 hrs by MTT assay; format: cell-based; conditions: Fibroblast
Mus musculus [4] = assay: Gastroprotective activity in Swiss albino mouse model of HCl/EtOH-induced lesion assessed as inhibition of gastric lesions at 100 mg/kg, po dosed 50 mins before HCl/EtOH challenge and measured 1 hr post HCl/EtOH challenge; format: functional; conditions: Stomach
Mus musculus [5] = assay: Gastroprotective activity in Swiss albino mouse model of HCl/EtOH-induced lesion assessed as inhibition of gastric lesions at 12.5 to 100 mg/kg, po dosed 50 mins before HCl/EtOH challenge and measured 1 hr post HCl/EtOH challenge; format: functional; conditions: Stomach
Mus musculus [6] = assay: (§1) Gastroprotective activity in Swiss albino mouse model of HCl/EtOH-induced lesion pre-treated with 10 mg/kg prostaglandin synthesis inhibitor indomethacin assessed as gastric lesion index at 50 mg/kg, po dosed 50 mins before HCl/EtOH challenge and measured 1 hr post HCl/EtOH challenge (reference value: 12.1 +/- 2.5 mm); format: functional, Stomach
Mus musculus [7] = assay: as §1, with “3.5” for “10”, “vanilloid receptor antagonist ruthenium red” for “prostaglandin synthesis inhibitor indomethacin”; format: functional, Stomach
Mus musculus [8] = assay: Gastroprotective activity in Swiss albino mouse model of HCl/EtOH-induced lesion assessed as gastric lesion index at 50 mg/kg, po dosed 50 mins before HCl/EtOH challenge and measured 1 hr post HCl/EtOH challenge (reference value: 42 +/- 1.9 mm); format: functional, Stomach
Mus musculus [9] = assay: (§2) Gastroprotective activity in Swiss albino mouse model of HCl/EtOH-induced lesion pre-treated with 10 mg/kg sulfhydryl inhibitor NEM assessed as gastric lesion index at 50 mg/kg, po dosed 50 mins before HCl/EtOH challenge and measured 1 hr post HCl/EtOH challenge (reference value: 12.1 +/- 2.5 mm); format: functional, Stomach
Mus musculus [10] = assay: as §2, with “70” for “10”, “NO synthase” for “sulfhydryl”, “L-NAME” for “NEM”; format: functional, Stomach
Mus musculus [11] = assay: Gastroprotective activity in Swiss albino mouse model of HCl/EtOH-induced lesion assessed as gastric lesion index at 100 mg/kg, po dosed 50 mins before HCl/EtOH challenge and measured 1 hr post HCl/EtOH challenge (reference value: 42 +/- 1.9 mm); format: functional, Stomach
Mus musculus [12] = assay: Gastroprotective activity in Swiss albino mouse model of HCl/EtOH-induced lesion assessed as inhibition of gastric lesions at 20 mg/kg, po dosed 50 mins before HCl/EtOH challenge and measured 1 hr post HCl/EtOH challenge; format: functional; conditions: Stomach
Mus musculus [13] = assay: Gastroprotective activity in Swiss albino mouse model of HCl/EtOH-induced lesion assessed as gastric lesion index at 70 mg/kg, po dosed 50 mins before HCl/EtOH challenge and measured 1 hr post HCl/EtOH challenge (reference value: 42 +/- 1.9 mm); format: functional, Stomach

Structure (SMILES) | inhibition in vivo at 50 mg/kg (Mus musculus [2]) [%] | IC50 (AGS) [µM] | IC50 [3] [µM] | other results
CCN1C(=O)C=CC1=O [N-ETHYLMALEIMIDE] |  |  |  | Activity (Mus musculus [1]): 41.9 mm
COc1cccc(/C=C/C(=O)OC[C@@]2(C)CCC[C@]3(C)[C@@H]2CC[C@@]24C=C[C@@](C)(CC[C@H]23)C4)c1 | 4 | 165 | 289 | 
C[C@]12C=C[C@@]3(CC[C@@H]4[C@@](C)(COC(=O)/C=C/c5ccccc5)CCC[C@@]4(C)[C@@H]3CC1)C2 | 68 | 30 | 45 | 
COc1ccccc1/C=C/C(=O)OC[C@@]1(C)CCC[C@]2(C)[C@@H]1CC[C@@]13C=C[C@@](C)(CC[C@H]12)C3 | 7 | 151 | 311 | 
CCCCCCCCCCCCCCCCCC(=O)OC[C@@]1(C)CCC[C@]2(C)[C@@H]1CC[C@@]13C=C[C@@](C)(CC[C@H]12)C3 | 44 | 228 | 359 | 
C[C@]12C=C[C@@]3(CC[C@@H]4[C@@](C)(CO)CCC[C@@]4(C)[C@@H]3CC1)C2 | 53 | 19 | 31 | inhibition in vivo at 100 mg/kg (Mus musculus [4]): 79%; ED50 (Mus musculus [5]): 50 mg/kg; inhibition (Mus musculus [5]): Dose-dependent effect
C[C@]12C=C[C@@]3(CC[C@@H]4[C@@](C)(COC(=O)/C=C/c5cccc(Cl)c5)CCC[C@@]4(C)[C@@H]3CC1)C2 | 77 | 12 | 15 | Activity (Mus musculus [6]): 38.9 mm; Activity (Mus musculus [7]): 17 mm; Activity (Mus musculus [8]): 12.1 mm; Activity (Mus musculus [9]): 15.2 mm; Activity (Mus musculus [10]): 13.1 mm
CCCCCCCCCCCC(=O)OC[C@@]1(C)CCC[C@]2(C)[C@@H]1CC[C@@]13C=C[C@@](C)(CC[C@H]12)C3 | 51 | 33 | 52 | 
CC1(C)[C@@H](OC(=O)CCC(=O)O)CC[C@]2(C)[C@H]3C(=O)C=C4[C@@H]5C[C@@](C)(C(=O)O)CC[C@]5(C)CC[C@@]4(C)[C@]3(C)CC[C@@H]12 [CARBENOXOLONE] |  |  |  | Activity (Mus musculus [11]): 13.1 mm
CCCCCCCCCC(=O)OC[C@@]1(C)CCC[C@]2(C)[C@@H]1CC[C@@]13C=C[C@@](C)(CC[C@H]12)C3 | 52 | 21 | 33 | 
Cc1c(OCC(F)(F)F)ccnc1C[S+]([O-])c1nc2ccccc2[nH]1 (stereo not given) [LANSOPRAZOLE] | 65 | 149 | 291 | inhibition in vivo at 20 mg/kg (Mus musculus [12]): 57%
C[C@]12C=C[C@@]3(CC[C@@H]4[C@@](C)(COC(=O)/C=C/c5ccccc5[N+](=O)[O-])CCC[C@@]4(C)[C@@H]3CC1)C2 | 14 | 25 | 38 | 
COC(=O)[C@@H](N)CCCNC(=N)N[N+](=O)[O-] [L-NAME] |  |  |  | Activity (Mus musculus [13]): 42.7 mm
C[C@]12C=C[C@@]3(CC[C@@H]4[C@@](C)(COC(=O)/C=C/c5ccc([N+](=O)[O-])cc5)CCC[C@@]4(C)[C@@H]3CC1)C2 | 0 | 35 | 61 | 
COc1ccc2c(c1)c(CC(=O)O)c(C)n2C(=O)c1ccc(Cl)cc1 [INDOMETHACIN] |  |  |  | Activity (Mus musculus [1]): 39.9 mm
C[C@]12C=C[C@@]3(CC[C@@H]4[C@@](C)(COC(=O)/C=C/c5ccc(Cl)cc5)CCC[C@@]4(C)[C@@H]3CC1)C2 | 42 | 18 | 29 | 
COc1ccc(/C=C/C(=O)OC[C@@]2(C)CCC[C@]3(C)[C@@H]2CC[C@@]24C=C[C@@](C)(CC[C@H]23)C4)cc1 | 11 | 230 | 378 | 
CCCCCCCCCCCCCCCC(=O)OC[C@@]1(C)CCC[C@]2(C)[C@@H]1CC[C@@]13C=C[C@@](C)(CC[C@H]12)C3 | 46 | 64 | 88 | 
CCCCCCCCCCCCCCCCCCCC(=O)OC[C@@]1(C)CCC[C@]2(C)[C@@H]1CC[C@@]13C=C[C@@](C)(CC[C@H]12)C3 | 34 | 321 | 581 | 
C[C@]12C=C[C@@]3(CC[C@@H]4[C@@](C)(COC(=O)/C=C/c5cccc([N+](=O)[O-])c5)CCC[C@@]4(C)[C@@H]3CC1)C2 | 2 | 29 | 44 | 
CCCCCCCCCCCCCC(=O)OC[C@@]1(C)CCC[C@]2(C)[C@@H]1CC[C@@]13C=C[C@@](C)(CC[C@H]12)C3 | 46 | 38 | 61 | 
Cc1ccc(/C=C/C(=O)OC[C@@]2(C)CCC[C@]3(C)[C@@H]2CC[C@@]24C=C[C@@](C)(CC[C@H]23)C4)cc1 | 8 | 39 | 49 | 
C[C@]12C=C[C@@]3(CC[C@@H]4[C@@](C)(COC(=O)/C=C/c5ccc(F)cc5)CCC[C@@]4(C)[C@@H]3CC1)C2 | 24 | 58 | 69 | 

From ChEMBL document CHEMBL3588852, “Gastroprotective activity of ent-beyerene derivatives in mice: Effects on gastric secretion, endogenous prostaglandins and non-protein sulfhydryls” (Bioorg Med Chem Lett, 2015)
